Earlier results, collected in US20040235808A1, “Androstanes as androgen receptor modulators” (priority 2001, published 2004).

What was measured:
[1] = after 7 years of treatment
[2] = median of 22 months of treatment

| Compound | increase in spinal BMD [1] | reduction in nonvertebral fractures [2] | reduction in spine fractures [2] |
| --- | --- | --- | --- |
| NCCCC(O)(P(=O)([O-])O)P(=O)(O)O.O.O.O.[Na+] [alendronate, (4-amino-1-hydroxybutylidene)-bis-phosphonate monosodium trihydrate] | 11% |  |  |
| hPTH(1-34): human parathyroid hormone 1-34 fragment (SVSEIQLMHNLGKHLNSMERVEWLRKKLQDVHNF; Parathyroid hormone; UniProt P01270 32-65, looked up, fragment) |  | 54% | ≥ 65% |
